Assay results from patent US9861099B2, “Composition for enhancing plant disease control effect of monosaccharide” (MITSUI CHEMICALS AGRO, INC., priority 2013, dated 2018).

Key:
Format in all cases: in vivo
[1] = test system: Pseudoperonospora cubensis; experiment: Cucumber downy mildew (CDM) control test
Magnaporthe grisea = settings: Table 9: monosaccharide 10% liquid preparation, no assistant, 10-fold dilution (monosaccharide 1%)
Plasmopara viticola = experiment: Grape vine downy mildew (VDM) control test; settings: Table 9: monosaccharide 10% liquid preparation, no assistant, 10-fold dilution (monosaccharide 1%)
Sphaerotheca cucurbitae = experiment: Cucumber powdery mildew (CPM) control test; settings: Table 9: monosaccharide 10% liquid preparation, no assistant, 10-fold dilution (monosaccharide 1%)
[2] = test system: Rhizoctonia solani AGI-IA; experiment: Rice sheath blight (SB) control test; settings: Table 9: monosaccharide 10% liquid preparation, no assistant, 10-fold dilution (monosaccharide 1%)
Procedure: (SB: Sheath Blight) Test plants (rice variety: Sachikaze) were planted followed by cultivating until the third leaf appeared. In the test, dilutions (5 ml/pot) obtained by diluting with distilled water so that each formula reached a prescribed concentration were sprayed. After inoculating the seedlings one day after spraying with clumps of Rhizoctonia solani AGI-IA cultured for 14 days in oat medium, the seedlings were allowed to stand for about 24 hours in an inoculation room at a room temperature of 28° C. to promote the onset of disease. Disease development was investigated 14 days after inoculation, and the effects thereof were evaluated. Disease development was evaluated using the following indicators for disease control tests evaluated according to the methods described above. Furthermore, preventive values were calculated based on the disease development.

Botrytis cinerea = experiment: Tomato gray mold (GM) control test; settings: Table 9: monosaccharide 10% liquid preparation, no assistant, 10-fold dilution (monosaccharide 1%)
Procedure: (GM: Gray Mold) Test plants (tomato variety: Oogata Fukuju) were planted followed by cultivating until three first leaves appeared. In the test, dilutions (5 ml/pot) obtained by diluting with distilled water so that each formula reached a prescribed concentration were sprayed. After inoculating the seedlings one day after spraying by spraying with 1×10^7 organisms/ml of conidia of Botrytis cinerea, the seedlings were allowed to stand for about 48 hours in an inoculation room at a room temperature of 20° C. to 23° C. to promote the onset of disease. Disease development was investigated 2 days after inoculation, and the effects thereof were evaluated. Disease development was evaluated using the following indicators for disease control tests evaluated according to the methods described above. Furthermore, preventive values were calculated based on the disease development.

[3] = Table 8: D-tagatose liquid preparation with assistant (5 parts), 10-fold dilution (D-tagatose 0.5%+assistant 0.5%), improvement vs D-tagatose only

Row | Compound | Evaluation Score CDM [1, 3] | other results
1 | OC[C@@H](O)[C@@H](O)[C@H](O)[C@H](O)CO [D-mannitol] | 1 (Improvement in preventive value of 1 to less than 10) | –
2 | O=C(CO)[C@@H](O)[C@H](O)CO [D-xylulose] | 1 (Improvement in preventive value of 1 to less than 10) | –
3 | Nc1nc2c(ncn2[C@@H]2O[C@H](CO)[C@@H](O)[C@H]2O)c(=O)[nH]1 [Guanosine] | 0 | –
4 | OC[C@H]1OC(O)[C@@H](O)[C@H](O)[C@@H]1O (stereo partly drawn) [D-altrose] | 4 (Improvement in preventive value of 30 to less than 40) | –
5 | Nc1ncnc2[nH]cnc12 [Adenine] | 0 | –
6 | O=C1O[C@H](CO)[C@@H](O)[C@H](O)[C@H]1O [D-gluconolactone] | 2 (Improvement in preventive value of 10 to less than 20) | –
7 | O=CC[C@H](O)[C@H](O)CO [Formula 2-deoxy-D-ribose, 2-deoxy-D-ribose] | 4 (Improvement in preventive value of 30 to less than 40) | –
8 | L-leucine | 3 (Improvement in preventive value of 20 to less than 30) | –
9 | N[C@@H](CO)C(=O)O [L-serine] | 1 (Improvement in preventive value of 1 to less than 10) | –
10 | Nc1ncnc2c1ncn2[C@@H]1O[C@H](CO)[C@@H](O)[C@H]1O [Adenosine] | 0 | –
11 | OC[C@@H](O)[C@H](O)[C@@H](O)CO [Xylitol] | 2 (Improvement in preventive value of 10 to less than 20) | –
12 | Nc1cc[nH]c(=O)n1 [Cytosine] | 0 | –
13 | O=C[C@@H](O)[C@@H](O)[C@@H](O)[C@H](O)CO [D-talose] | 2 (Improvement in preventive value of 10 to less than 20) | preventive value B (Magnaporthe grisea): (50); preventive value VDM (Plasmopara viticola): (0); preventive value CPM (Sphaerotheca cucurbitae): (17); preventive value SB [2]: (30)
14 | Nc1ccn([C@@H]2O[C@H](CO)[C@@H](O)[C@H]2O)c(=O)n1 [Cytidine] | 1 (Improvement in preventive value of 1 to less than 10) | –
15 | D-glucose | 1 (Improvement in preventive value of 1 to less than 10) | –
16 | Lactose | 1 (Improvement in preventive value of 1 to less than 10) | –
17 | O=C(CO)[C@H](O)[C@@H](O)[C@@H](O)CO [L-fructose] | – | preventive value B (Magnaporthe grisea): (0); preventive value GM (Botrytis cinerea): (40); preventive value VDM (Plasmopara viticola): (0); preventive value CPM (Sphaerotheca cucurbitae): (33); preventive value SB [2]: (60)
18 | Nc1nc2nc[nH]c2c(=O)[nH]1 [Guanine] | – | Evaluation Score CDM ([1]; in vivo): 0
19 | N[C@@H](Cc1ccccc1)C(=O)O [L-phenylalanine] | 3 (Improvement in preventive value of 20 to less than 30) | –
20 | C[N+](C)(C)CC(O)CC(=O)[O-] (racemic) [DL-carnitine] | 2 (Improvement in preventive value of 10 to less than 20) | –

Row | Compound | Evaluation Score CDM [1, 3] | other results
21 | OC[C@@H](O)[C@@H](O)CO [Meso-erythritol] | 3 (Improvement in preventive value of 20 to less than 30) | –
22 | O=C[C@H](O)[C@H](O)[C@H](O)CO [D-ribose] | 2 (Improvement in preventive value of 10 to less than 20) | –
23 | O=C(CO)[C@@H](O)[C@H](O)[C@H](O)CO [D-fructose] | 2 (Improvement in preventive value of 10 to less than 20) | –
24 | OC[C@H]1O[C@H](O[C@H]2O[C@H](CO)[C@@H](O)[C@H](O)[C@H]2O)[C@H](O)[C@@H](O)[C@@H]1O [Trehalose] | 3 (Improvement in preventive value of 20 to less than 30) | –
25 | C[C@@H](O)[C@H](O)[C@H](O)[C@@H](O)C=O [D-fucose] | 2 (Improvement in preventive value of 10 to less than 20) | –
26 | O=C[C@H](O)[C@@H](O)[C@H](O)[C@H](O)C(=O)[O-].[Na+] [Sodium D-glucuronate] | 1 (Improvement in preventive value of 1 to less than 10) | –
27 | O=c1cc[nH]c(=O)[nH]1 [Uracil] | 1 (Improvement in preventive value of 1 to less than 10) | –
28 | CC(O)C(=O)O (stereo not shown) [Lactic acid] | 0 | –
29 | O=C(O)CCCC(=O)O [Glutaric acid] | – | Evaluation Score CDM ([1]; in vivo): 0
30 | Stachyose | 1 (Improvement in preventive value of 1 to less than 10) | –
31 | O=C(CO)[C@@H](O)[C@H](O[C@H]1O[C@H](CO)[C@@H](O)[C@H](O)[C@H]1O)[C@H](O)CO [Maltulose] | 1 (Improvement in preventive value of 1 to less than 10) | –
32 | CSCC[C@H](N)C(=O)O [L-methionine] | 2 (Improvement in preventive value of 10 to less than 20) | –
33 | O=C(O)CC(=O)O [Malonic acid] | 0 | –
34 | N[C@@H](Cc1c[nH]cn1)C(=O)O [L-histidine] | 3 (Improvement in preventive value of 20 to less than 30) | –
35 | NC(=O)CC[C@H](N)C(=O)O [L-glutamine] | 1 (Improvement in preventive value of 1 to less than 10) | –
36 | O=C[C@H](O)[C@@H](O)[C@H](O)CO [D-xylose] | 1 (Improvement in preventive value of 1 to less than 10) | –
37 | OC[C@H]1O[C@H](OC[C@H]2O[C@H](O[C@]3(CO)O[C@H](CO)[C@@H](O)[C@@H]3O)[C@H](O)[C@@H](O)[C@@H]2O)[C@H](O)[C@@H](O)[C@H]1O [Raffinose] | 4 (Improvement in preventive value of 30 to less than 40) | –
38 | OC[C@H]1O[C@@](CO)(O[C@H]2O[C@H](CO)[C@@H](O)[C@H](O)[C@H]2O)[C@@H](O)[C@@H]1O [Sucrose] | 1 (Improvement in preventive value of 1 to less than 10) | –
39 | O=c1ccn([C@@H]2O[C@H](CO)[C@@H](O)[C@H]2O)c(=O)[nH]1 [Uridine] | 0 | –
40 | OC[C@@H](O)[C@@H](O)[C@@H](O)[C@@H](O)CO [Allitol] | 2 (Improvement in preventive value of 10 to less than 20) | –

Row | Compound | Evaluation Score CDM [1, 3] | other results
41 | D-mannose | 2 (Improvement in preventive value of 10 to less than 20) | preventive value B (Magnaporthe grisea): (17); preventive value GM (Botrytis cinerea): (16); preventive value CPM (Sphaerotheca cucurbitae): (33); preventive value SB [2]: (60)
42 | CC[C@H](C)[C@H](N)C(=O)O [L-isoleucine] | 1 (Improvement in preventive value of 1 to less than 10) | –
43 | C[C@H](O)[C@H](O)[C@@H](O)[C@@H](O)C=O [L-rhamnose] | 2 (Improvement in preventive value of 10 to less than 20) | –
44 | CC(=O)O [Acetic acid] | 1 (Improvement in preventive value of 1 to less than 10) | –
45 | O=C[C@H](O)[C@@H](O)[C@H](O[C@@H]1O[C@H](CO)[C@@H](O)[C@H](O)[C@H]1O)[C@H](O)CO [Cellobiose] | 1 (Improvement in preventive value of 1 to less than 10) | –
46 | C[C@@H]1OC(O)[C@@H](O)[C@H](O)[C@@H]1O (stereo partly drawn) [L-fucose] | 2 (Improvement in preventive value of 10 to less than 20) | –
47 | O=C(O)[C@@H]1CCCN1 [L-proline] | 1 (Improvement in preventive value of 1 to less than 10) | –
48 | OC[C@@H](O)[C@@H](O)[C@H](O)[C@@H](O)CO [D-sorbitol] | 1 (Improvement in preventive value of 1 to less than 10) | –
49 | OC[C@H]1O[C@H](O[C@H]2[C@H](O)[C@@H](O)C(O)O[C@@H]2CO)[C@H](O)[C@@H](O)[C@@H]1O (mixture of isomers) [Maltose] | 1 (Improvement in preventive value of 1 to less than 10) | –
50 | O=C[C@H](O)[C@@H](O)[C@@H](O)[C@H](O)C(=O)O [D-galacturonic acid] | 3 (Improvement in preventive value of 20 to less than 30) | –
51 | L-alanine | 2 (Improvement in preventive value of 10 to less than 20) | –
52 | L-valine | 3 (Improvement in preventive value of 20 to less than 30) | –
53 | O=C[C@@H](O)[C@H](O)[C@H](O)CO [D-arabinose] | 1 (Improvement in preventive value of 1 to less than 10) | –
54 | NC(=O)C[C@H](N)C(=O)O [L-asparagine] | 1 (Improvement in preventive value of 1 to less than 10) | –
55 | N[C@@H](CS)C(=O)O [L-cysteine] | 3 (Improvement in preventive value of 20 to less than 30) | –
56 | C[C@@H](O)[C@H](N)C(=O)O [L-threonine] | 1 (Improvement in preventive value of 1 to less than 10) | –
57 | O=C(O)c1ccccc1 [Benzoic acid] | – | Evaluation Score CDM ([1]; in vivo): 0
58 | O=C[C@H](O)CO [D-glyceraldehyde] | 4 (Improvement in preventive value of 30 to less than 40) | –
